# Where two headings read alike, the source gives them in different places.
# How the values were obtained:
# UTI89 [1] = assay: colony biofilm formation on YESCA agar; assay type: cell-based, uropathogenic E. coli; conditions: for biofilm formation on agar (colony morphology): UTI89 on YESCA agar
# Experimental: (§1) Growth conditions. UTI89, UTI89ΔcsgA, MC4100, and MC4100Δcsg were grown on YESCA (0.5 g/L yeast extract; 10 g/L Casamino acids) agar supplemented with additional compounds as indicated.
# (§2) Biofilm assays. Colony biofilm formation was initiated by spotting 10 μl of overnight bacterial culture onto a YESCA agar plate (Kolodkin-Gal et al. (2010) Science 328:627-629). Colony morphology was observed after designated growth times at 26° C. Biofilm in YESCA broth attached to plastic (polyvinyl chloride, PVC) was determined using the Kolter crystal violet assay as described by O'Toole et al. (1998) Mol. Microbiol. 28:449-461. Briefly, bacterial cells were grown in 96-well PVC plates; unattached cells were washed away; and cells remaining associated with the PVC wells were stained with 0.1% crystal violet. The extent of biofilm formation was quantified by measuring the absorbance of crystal violet at OD595 after dissolving the PVC-associated biomass in 95% ethanol. The percent biofilm represents the increase in biofilm formation in the presence of various concentrations of DMSO and ethanol relative to biofilm formation when no compound was present. The mean of triplicate individual experiments was used and error bars represent the standard deviation. Pellicle formation was initiated by inoculating 4 μL of an overnight bacterial culture grown in YESCA broth in 4 mL YESCA in 12-well-plate wells and incubated at 26° C. Pellicle formation was inspected visually and assessed by perturbation with a pipet tip after 72 hours of growth.
# UTI89 [2] = assay: pellicle formation (biofilm at the air-liquid interface); assay type: cell-based, uropathogenic E. coli; conditions: for pellicle formation / biofilm formation at the air-liquid interface: UTI89; for concentration preventing formation of a biofilm at the air-liquid interface: UTI89, complete inhibition
# Experimental: as §2
# UTI89 [3] = assay: biofilm attached to PVC plastic, 96-well crystal violet assay; assay type: cell-based, uropathogenic E. coli
# Experimental: as §2
# E. coli strain MC4100 = assay: fibronectin-binding assay (adhesion to fibronectin-coated plates); assay type: cell-based; conditions: MC4100 grown under curli-producing conditions on agar in the presence of compound; dose-dependent
# Source text: We employed a commonly used fibronectin-binding assay to determine whether curcumin blocks adhesion of E. coli strain MC4100 to fibronectin-coated plates. MC4100 is the E. coli strain in which curli biogenesis was first described. […] UTI89, on the other hand, is a prototypical biofilm-competent strain that forms biofilms on agar, on plastic, and at an air-liquid interface when expressing curli and cellulose. Since curli are sufficient to mediate binding to fibronectin, the use of MC4100 readily allows one to determine whether a compound or external stimulus can influence curli-dependent adhesion.
# as §1
# [4] = test system: curli proteins, CsgA and CsgG; assay: Western blot analysis of cell-associated curli proteins; assay type: cell-based, E. coli
# Experimental: Western blot analysis. The cell-associated curli proteins, CsgA and CsgG, were examined by immunoblot assays as described (41). Briefly, whole-cell samples with equivalent cell number were prepared as cell pellets of 1 mL cell culture with an OD600 of 1.0. Each pellet was treated with 100 μL hexafluoroisopropanol (HFIP) to dissociate curli subunits (41). HFIP was removed by vacuum centrifugation, and samples were resuspended in SDS-PAGE loading buffer. Protein gel electrophoresis was carried out using 12% SDS-PAGE gels (Invitrogen) and blotted onto […] nitrocellulose transfer membranes (Whatman). The polyclonal rabbit antiserum to CsgA or CsgG was used as the primary antibody and horseradish peroxidase (HRP) conjugated goat anti-rabbit antibody (Pierce) was used as the secondary antibody (55).
# E. coli = assay: biofilm formation attached to Teflon (1 mL Teflon beakers, crystal violet); assay type: cell-based; conditions: 48 hours at 26° C. in YESCA broth
# Experimental: FIG. 4. Curcumin and dim ethyl curcumin reduce E. coli biofilm formation attached to Teflon using 1 mL Teflon beakers. After bacterial incubation for 48 hours at 26° C. in YESCA nutrient broth in the presence or absence of compounds, planktonic and loosely associated bacteria were washed from the beakers and adherent bacteria were stained with crystal violet, dissolved in ethanol and quantified by spectrophotometry.
# Teflon is often used as a material in various industrial and biomedical applications, including the production of catheters. Teflon is often employed due to its general anti-adherent properties. Yet, even E. coli can adhere to Teflon and forms biofilms on Teflon surfaces. Thus, we also examined the ability of curcumin and DMC to prevent biofilm formation attached to Teflon using small 1-mL Teflon beakers.
# curli [5] = biological target: T1, curli (Escherichia coli, UniProt P28307); conditions: McCrate, Zhou, and Cegelski 2013; cited from earlier work
# T1 sequence (P28307 21-151): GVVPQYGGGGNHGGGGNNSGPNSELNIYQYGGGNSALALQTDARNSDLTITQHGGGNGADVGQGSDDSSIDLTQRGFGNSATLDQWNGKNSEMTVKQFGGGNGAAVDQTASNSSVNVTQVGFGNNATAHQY
# amyloid β = amyloid β (Homo sapiens, UniProt P05067); conditions: oligomer form and fibril form; Yang et al. 2005; cited from earlier work
# Chain of amyloid β (P05067 672-713 limits assumed): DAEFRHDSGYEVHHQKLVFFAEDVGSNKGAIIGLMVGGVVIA
# [6] = biological target: Alzheimer's β-amyloid fibrils (Homo sapiens, UniProt P05067); conditions: Ono et al. 2004; cited from earlier work
# Chain of Alzheimer's β-amyloid fibrils (P05067 672-713 limits assumed): as above
# curli [7] = biological target: T1, curli; conditions: cited from earlier work
molecule,measurement,setting,value
Nc1c(/N=N/c2ccc(-c3ccc(/N=N/c4cc(S(=O)(=O)O)c5ccccc5c4N)cc3)cc2)cc(S(=O)(=O)O)c2ccccc12 [Congo red],biofilm formation on agar (colony morphology),UTI89 [1],does not block biofilm formation
same,pellicle formation / biofilm formation at the air-liquid interface,UTI89 [2],not
"COc1ccc(/C=C/C(=O)CC(=O)/C=C/c2ccc(OC)c(OC)c2)cc1OC [DMC, dimethoxycurcumin]",concentration preventing formation of a biofilm at the air-liquid interface,UTI89 [2],10 µM
same,concentration blocking biofilm formation attached to plastic (PVC),UTI89 [3],10 µM
COc1cc(/C=C/C(=O)CC(=O)/C=C/c2ccc(O)c(OC)c2)ccc1O [curcumin],adhesion to the protein fibronectin,E. coli strain MC4100,reduced adhesion
same,production of curli proteins,"[4]; MC4100, Western blot",did not influence
same,curli production,"[4]; UTI89, Western blot",not affected
same,biofilm inhibition on agar after 5 days,"UTI89 [1]; UTI89, 5 days of bacterial growth",diminished after 5 days
same,biofilm formation on agar (colony morphology),UTI89 [1],lost the hallmark rough and wrinkled phenotype
same,pellicle formation / biofilm formation at the air-liquid interface,UTI89 [2],completely prevent pellicle formation
same,concentration preventing formation of a biofilm at the air-liquid interface,UTI89 [2],25 µM
same,concentration blocking biofilm formation attached to plastic (PVC),UTI89 [3],25 µM
same,concentration blocking biofilm formation attached to plastic (PVC),UTI89 [3]; listed as curumin,10 µM
same,biofilm formation attached to Teflon,E. coli,effective at significantly preventing biofilm formation
same,binding to curli,curli [5],binding to curli
same,binding to amyloid β,amyloid β,bind
same,amyloid fibril formation in vitro,[6],prevent amyloid fibril formation
LL-37,curli formation,curli [7],inhibits curli formation

# From patent publication US9271493B2, “Methods for microbial biofilm destruction” (priority 2012, dated 2016)
